Experimental data: the supplement of paper PMC10307832

Tests used:
Test in all cases: relative viability (nuclei count vs DMSO), 5 days (fraction); higher = more cells survive
Tosedostat + Lapatinib = compound: CC(C)C[C@@H](C(=O)N[C@H](C(=O)OC1CCCC1)c1ccccc1)[C@H](O)C(=O)NO [Tosedostat] + CS(=O)(=O)CCNCc1ccc(-c2ccc3ncnc(Nc4ccc(OCc5cccc(F)c5)c(Cl)c4)c3c2)o1 [Lapatinib] (partner 2 µM)
Procedure, shortened: (§1)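 For relative viability, nuclei counts in treated wells were divided by those in vehicle wells. Lung cancer cell lines had been pin-tool dosed in 1536-well plates the day after seeding and cultured for 5 days, then fixed and stained in one step (final 0.05% Triton X-100, 1% formaldehyde, 1 ug/ml Hoechst) and imaged at 4×. Doses were one drug alone or a fixed anchor-drug dose plus five library-drug doses (not always all listed) in √10 steps, and values are duplicate-plate medians.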

[1] = compound: CC1=NN=C(O1)C2=NN=C(C=C2)N3CCC(CC3)OC4=C(C=CC(=C4)F)Cl + Cc1nc(NC(=O)N2CCC[C@H]2C(N)=O)sc1-c1ccnc(C(C)(C)C(F)(F)F)c1 [Alpelisib] (partner 2 µM)
Procedure, shortened: as §1

Tosedostat + Pictilisib = compound: CC(C)C[C@@H](C(=O)N[C@H](C(=O)OC1CCCC1)c1ccccc1)[C@H](O)C(=O)NO [Tosedostat] + CS(=O)(=O)N1CCN(Cc2cc3nc(-c4cccc5[nH]ncc45)nc(N4CCOCC4)c3s2)CC1 [Pictilisib] (partner 1 µM)
Procedure, shortened: as §1

[2] = compound: CC1=NN=C(O1)C2=NN=C(C=C2)N3CCC(CC3)OC4=C(C=CC(=C4)F)Cl + CS(=O)(=O)CCNCc1ccc(-c2ccc3ncnc(Nc4ccc(OCc5cccc(F)c5)c(Cl)c4)c3c2)o1 [Lapatinib] (partner 2 µM)
Procedure, shortened: as §1

Row | Cell Line | relative viability (Tosedostat + Lapatinib; first compound 0.02 µM) | relative viability (Tosedostat + Lapatinib; first compound 0.06325 µM) | relative viability (Tosedostat + Lapatinib; first compound 0.2 µM) | relative viability (Tosedostat + Lapatinib; first compound 0.6325 µM) | relative viability (Tosedostat + Lapatinib; first compound 2 µM) | relative viability ([1]; first compound 0.253 µM) | relative viability ([1]; first compound 0.8 µM) | relative viability ([1]; first compound 2.53 µM) | relative viability ([1]; first compound 8 µM) | relative viability (Tosedostat + Pictilisib; first compound 0.02 µM) | relative viability (Tosedostat + Pictilisib; first compound 0.06325 µM) | relative viability (Tosedostat + Pictilisib; first compound 0.2 µM) | relative viability (Tosedostat + Pictilisib; first compound 0.6325 µM) | relative viability (Tosedostat + Pictilisib; first compound 2 µM) | relative viability ([2]; first compound 0.253 µM) | relative viability ([2]; first compound 0.8 µM) | relative viability ([2]; first compound 2.53 µM) | relative viability ([2]; first compound 8 µM)
1 | NCI-H1563 | 1.03 | 1.03 | 0.957 | 0.956 | 1.05 | 1 | 0.952 | 0.999 | 1.09 | 0.636 | 0.657 | 0.708 | 0.712 | 0.616 | 0.804 | 0.992 | 0.88 | 0.82
2 | HCC-78 | 0.647 | 0.764 | 0.684 | 0.841 | 0.746 | 0.318 | 0.309 | 0.308 | 0.321 | 0.202 | 0.226 | 0.212 | 0.221 | 0.197 | 0.401 | 0.351 | 0.404 | 0.325
3 | NCI-H1666 | 0.841 | 0.853 | 0.669 | 0.735 | 0.618 | 0.672 | 0.738 | 0.846 | 0.792 | 0.603 | 0.404 | 0.5 | 0.367 | 0.291 | 0.303 | 0.554 | 0.608 | 0.428
4 | HCC-15 | 0.949 | 0.882 | 0.748 | 0.746 | 0.708 | 0.661 | 0.578 | 0.582 | 0.584 | 0.777 | 0.731 | 0.638 | 0.572 | 0.501 | 0.418 | 0.408 | 0.415 | 0.414
5 | EKVX | 0.19 | 0.233 | 0.418 | 0.218 | 0.227 | 0.446 | 0.323 | 0.363 | 0.462 | 0.45 | 0.423 | 0.444 | 0.398 | 0.431 | 0.175 | 0.178 | 0.187 | 0.193
6 | NCI-H2347 | 1.12 | 1.02 | 1.03 | 0.892 | 0.888 | 0.788 | 0.758 | 0.801 | 0.682 | 0.659 | 0.662 | 0.554 | 0.771 | 0.552 | 0.557 | 0.631 | 0.593 | 0.535
7 | LK-2 | 0.958 | 0.971 | 0.892 | 0.995 | 1.2 | 1.03 | 1.01 | 1.17 | 1.23 | 0.613 | 0.583 | 0.576 | 0.606 | 0.812 | 0.982 | 0.945 | 0.947 | 0.818
8 | NCI-H1651 | 0.883 | 0.81 | 0.77 | 0.816 | 0.697 | 0.821 | 0.78 | 0.777 | 0.75 | 0.729 | 0.64 | 0.503 | 0.55 | 0.451 | 0.695 | 0.784 | 0.691 | 0.708
9 | COR-L23 | 1.03 | 0.946 | 0.918 | 0.817 | 0.99 | 0.591 | 0.657 | 0.574 | 0.552 | 0.955 | 0.784 | 0.666 | 0.649 | 0.745 | 0.811 | 0.761 | 0.756 | 0.602
